Test results as given in ChEMBL document CHEMBL1156789, “Design and synthesis of 5,5'-disubstituted aminohydantoins as potent and selective human beta-secretase (BACE1) inhibitors” (J Med Chem, 2010).

Key:
Beta-secretase 1 [1] = target: T1, Beta-secretase 1 (Homo sapiens, UniProt P56817); assay: Inhibition of human BACE1 by FRET based peptide cleavage assay
Beta-secretase 1 [2] = target: T1, Beta-secretase 1; assay: Inhibition of BACE1 expressed in CHOK1 cells coexpressing human recombinant wild type APP assessed as blockade of amyloid beta production by ELISA; type: cell-based, CHO-K1
Cathepsin D [3] = target: T2, Cathepsin D (Homo sapiens, UniProt P07339); assay: Inhibition of human cathepsin D at 100 uM by FRET based peptide cleavage assay
Beta-secretase 2 = target: T3, Beta-secretase 2 (Homo sapiens, UniProt Q9Y5Z0); assay: Inhibition of human BACE2 by FRET based peptide cleavage assay
T3 sequence (Q9Y5Z0 whole entry): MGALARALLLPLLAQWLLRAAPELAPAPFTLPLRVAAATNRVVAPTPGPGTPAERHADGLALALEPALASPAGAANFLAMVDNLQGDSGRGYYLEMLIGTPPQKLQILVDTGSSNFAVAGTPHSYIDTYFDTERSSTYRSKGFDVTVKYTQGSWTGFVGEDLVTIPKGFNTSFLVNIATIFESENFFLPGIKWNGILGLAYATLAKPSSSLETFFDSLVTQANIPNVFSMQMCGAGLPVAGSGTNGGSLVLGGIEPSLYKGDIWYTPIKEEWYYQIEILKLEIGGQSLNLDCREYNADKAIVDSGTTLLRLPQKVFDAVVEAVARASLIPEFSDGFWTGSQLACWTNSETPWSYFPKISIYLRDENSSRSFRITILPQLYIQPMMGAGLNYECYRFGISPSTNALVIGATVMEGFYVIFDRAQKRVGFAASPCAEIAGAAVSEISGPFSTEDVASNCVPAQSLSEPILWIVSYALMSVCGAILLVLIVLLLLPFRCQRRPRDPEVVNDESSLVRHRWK

Cathepsin D [4] = target: T2, Cathepsin D; assay: Inhibition of human cathepsin D by FRET based peptide cleavage assay
[5] = Inhibition of pepsin by FRET based peptide cleavage assay
Renin = target: T4, Renin (Homo sapiens, UniProt P00797); assay: Inhibition of human recombinant renin by FRET based peptide cleavage assay
T4 sequence (P00797 whole entry): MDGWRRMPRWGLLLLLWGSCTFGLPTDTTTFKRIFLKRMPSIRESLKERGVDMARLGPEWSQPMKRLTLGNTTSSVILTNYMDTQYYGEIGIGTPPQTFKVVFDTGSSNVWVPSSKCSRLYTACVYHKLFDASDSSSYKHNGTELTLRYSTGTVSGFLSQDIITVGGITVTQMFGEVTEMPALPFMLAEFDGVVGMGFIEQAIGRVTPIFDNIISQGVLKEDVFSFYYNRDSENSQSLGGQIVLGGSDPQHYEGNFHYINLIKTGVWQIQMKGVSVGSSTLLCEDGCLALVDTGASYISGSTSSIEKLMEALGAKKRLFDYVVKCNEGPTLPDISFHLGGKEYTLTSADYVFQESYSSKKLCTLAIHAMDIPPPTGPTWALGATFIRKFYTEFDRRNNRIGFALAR

T1 sequence (P56817 whole entry): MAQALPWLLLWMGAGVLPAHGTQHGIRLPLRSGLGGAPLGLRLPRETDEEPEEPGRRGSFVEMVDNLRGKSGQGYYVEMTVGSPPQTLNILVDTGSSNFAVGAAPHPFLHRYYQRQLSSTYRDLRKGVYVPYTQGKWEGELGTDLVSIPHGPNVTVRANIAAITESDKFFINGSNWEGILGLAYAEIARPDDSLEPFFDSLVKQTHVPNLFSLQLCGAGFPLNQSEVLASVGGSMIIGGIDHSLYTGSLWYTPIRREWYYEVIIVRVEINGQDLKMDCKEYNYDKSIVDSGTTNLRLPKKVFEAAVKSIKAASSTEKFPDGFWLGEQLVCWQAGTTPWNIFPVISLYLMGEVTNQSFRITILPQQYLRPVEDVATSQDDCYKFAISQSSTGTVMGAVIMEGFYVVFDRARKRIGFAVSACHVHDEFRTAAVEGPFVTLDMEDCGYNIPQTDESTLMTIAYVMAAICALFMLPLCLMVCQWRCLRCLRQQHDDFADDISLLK
T2 sequence (P07339 65-162 limits assumed): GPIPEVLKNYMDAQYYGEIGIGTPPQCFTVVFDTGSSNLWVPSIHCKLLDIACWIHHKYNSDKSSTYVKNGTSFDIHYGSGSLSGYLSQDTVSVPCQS
T2 sequence (P07339 169-412 limits assumed): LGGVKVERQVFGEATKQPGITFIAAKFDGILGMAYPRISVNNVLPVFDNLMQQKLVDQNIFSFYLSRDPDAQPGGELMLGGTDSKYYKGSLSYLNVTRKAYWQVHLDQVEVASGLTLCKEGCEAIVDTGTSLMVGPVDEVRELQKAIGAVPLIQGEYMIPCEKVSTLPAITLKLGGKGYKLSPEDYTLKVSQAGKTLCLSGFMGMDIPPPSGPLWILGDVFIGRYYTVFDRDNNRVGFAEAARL

Compound | IC50 (Beta-secretase 1 [1]) [µM] | EC50 (Beta-secretase 1 [2]) [µM] | inhibition (Cathepsin D [3]) [%] | IC50 (Beta-secretase 2) [µM] | IC50 (Cathepsin D [4]) [µM] | IC50 [5] [µM] | IC50 (Renin) [µM]
COc1ccc(C2(c3ccccc3)N=C(N)N(C)C2=O)cc1 (configuration not stated) | 3.1 | 3.35 | 3 | 1.72 | – | – | –
CCCCOc1ccc(C2(C34CC5CC(CC(C5)C3)C4)N=C(N)N(C)C2=O)cc1 (configuration not stated) | – | – | – | 5.55 | 8.4 | – | –
CCCCOc1cc(C2(c3cccc(-c4cccnc4)c3)N=C(N)N(C)C2=O)ccc1OC (configuration not stated) | 0.05 | 0.67 | – | 0.17 | 8.18 | – | –
CCN1C(=O)C(c2ccccc2)(c2ccccc2)N=C1N | – | 8.13 | 33 | 5.16 | – | – | –
COc1ccc(C2(c3cccc(-c4cccnc4)c3)N=C(N)N(C)C2=O)cc1C(F)(F)F (configuration not stated) | – | – | – | 1 | 3.51 | – | –
COc1ccc(C2(c3cccc(-c4cncnc4)c3)N=C(N)N(C)C2=O)cc1C (configuration not stated) | – | – | – | 1.59 | 14.3 | 33.3 | 42.3
CN1C(=O)C(c2cccc(-c3cccnc3)c2)(c2ccc3c(c2)OCO3)N=C1N (configuration not stated) | – | – | – | 0.54 | 21.4 | – | –
COc1ccc([C@]2(C34CC5CC(CC(C5)C3)C4)N=C(N)N(C)C2=O)cc1 | – | – | – | 0.23 | 13.4 | – | –
COc1ccc(C2(c3cccc(-c4cccnc4)c3)N=C(N)N(C)C2=O)cc1C1CCCC1 (configuration not stated) | – | – | – | 0.96 | 1.87 | – | –
COc1ccc(C2(c3ccc(C)c(-c4cccnc4)c3)N=C(N)N(C)C2=O)cc1C (configuration not stated) | – | – | – | 0.96 | 2.47 | – | –
CCOc1cc(C2(c3cccc(-c4cccnc4)c3)N=C(N)N(C)C2=O)ccc1OC (configuration not stated) | 0.05 | 0.52 | – | 0.6 | 10.3 | – | –
CN1C(=O)C(c2ccccc2)(C23CC4CC(CC(C4)C2)C3)N=C1N (configuration not stated) | – | – | – | 0.83 | 27.3 | – | –
COc1ccc(C2(c3cccc(-c4cccnc4)c3)N=C(N)N(C)C2=O)cc1OC (configuration not stated) | – | – | – | – | 23.1 | – | –
CN1C(=O)C(c2ccc(OC(F)(F)F)cc2)(C23CC4CC(CC(C4)C2)C3)N=C1N (configuration not stated) | – | – | – | 3.87 | 6.22 | – | –
CN1C(=O)C(c2ccc(OC(F)(F)F)cc2)(c2ccc(F)c(-c3cncnc3)c2)N=C1N (configuration not stated) | – | – | – | 9.69 | 4.18 | – | –
COc1ccc([C@]2(c3ccc(F)c(-c4cccnc4F)c3)N=C(N)N(C)C2=O)cc1C | – | – | – | 1.64 | 2.71 | – | –
COc1ccc(-c2cccc(C3(c4ccc(OC(F)(F)F)cc4)N=C(N)N(C)C3=O)c2)cn1 (configuration not stated) | – | – | – | 2.51 | 4.43 | – | –
COc1ccc(C2(c3ccc(C#N)c(-c4cccnc4)c3)N=C(N)N(C)C2=O)cc1C (configuration not stated) | 0.63 | 1.75 | – | 2.32 | 2.19 | – | –
NC1=NC(c2ccccc2)(c2ccccc2)C(=O)N1 | – | 23.5 | 13 | 87.2 | – | – | –
COc1ccc(C2(c3cccc(-c4cccnc4)c3)N=C(N)N(C)C2=O)cc1OC(C)C (configuration not stated) | 0.06 | 0.87 | – | 1.84 | 12.2 | – | –
COc1ccc(C2(c3cccc(-c4cccnc4)c3)N=C(N)N(C)C2=O)cc1F (configuration not stated) | 0.05 | 0.42 | – | 0.52 | 5.2 | – | –
COc1cccc(C2(c3ccccc3)N=C(N)N(C)C2=O)c1 (configuration not stated) | 3.47 | 5.9 | 46 | 1.19 | – | – | –

Compound | IC50 (Beta-secretase 1 [1]) [µM] | EC50 (Beta-secretase 1 [2]) [µM] | inhibition (Cathepsin D [3]) [%] | IC50 (Beta-secretase 2) [µM] | IC50 (Cathepsin D [4]) [µM] | IC50 [5] [µM] | IC50 (Renin) [µM]
CN1C(=O)C(c2cccc(-c3cccnc3)c2)(c2ccc3c(c2)OCCO3)N=C1N (configuration not stated) | – | – | – | 0.5 | 10.9 | – | –
COc1ccc(C2(c3ccc(F)c(-c4cccnc4F)c3)N=C(N)N(C)C2=O)cc1C (configuration not stated) | – | – | – | 1.84 | 2.41 | 66.3 | 23.2
COc1ccc(C2(C34CC5CC(CC(C5)C3)C4)N=C(N)N(C)C2=O)cc1 (configuration not stated) | – | – | – | 0.68 | 15.3 | 14.4 | 53.3
CCCOc1cc(C2(c3cccc(-c4cccnc4)c3)N=C(N)N(C)C2=O)ccc1OC (configuration not stated) | 0.05 | 0.68 | – | 0.2 | 10.1 | – | –
COc1ccc(C2(c3cccc(-c4cccnc4)c3)N=C(N)N(C)C2=O)cc1C (configuration not stated) | – | – | – | – | – | 19.6 | 93.4
CN1C(=O)C(c2ccc(OC(F)(F)F)cc2)(c2cccc(-c3cncnc3)c2F)N=C1N (configuration not stated) | 1.36 | 2.83 | – | 5.04 | 26.2 | – | –
COc1ccc(C2(c3ccc(F)c(-c4cncnc4)c3)N=C(N)N(C)C2=O)cc1C (configuration not stated) | – | – | – | 2.8 | 6.7 | 35.3 | 57.6
CN1C(=O)[C@](c2ccc(OC(F)(F)F)cc2)(c2ccc(F)c(-c3cncnc3)c2)N=C1N | – | – | – | 9.97 | 11.6 | – | –
CN1C(=O)C(c2ccccc2)(c2ccc(Cl)cc2)N=C1N (configuration not stated) | 2.25 | 2.13 | – | 1.84 | 38.2 | – | –
CN1C(=O)C(c2cccc(-c3cccnc3)c2)(c2ccc3c(c2)CCO3)N=C1N (configuration not stated) | – | – | – | 1.13 | 23.9 | – | –
CCOc1ccc(C2(C34CC5CC(CC(C5)C3)C4)N=C(N)N(C)C2=O)cc1 (configuration not stated) | – | – | – | 2.53 | 11.5 | – | –
COc1ncccc1-c1cccc(C2(c3ccc(OC(F)(F)F)cc3)N=C(N)N(C)C2=O)c1 (configuration not stated) | 0.52 | 2.57 | – | 5.99 | 2.05 | – | –
CN1C(=O)C(c2ccc(OC(F)(F)F)cc2)(c2cc(F)cc(-c3cncnc3)c2)N=C1N (configuration not stated) | 0.32 | – | – | 1.26 | 8.55 | 35.1 | 13.8
COc1ccc([C@]2(C34CC5CC(CC(C5)C3)C4)N=C(N)N(C)C2=O)cc1C | – | – | – | 4.02 | 9.21 | – | –
COc1ccc(C2(C34CC5CC(CC(C5)C3)C4)N=C(N)N(C)C2=O)cc1C (configuration not stated) | – | – | – | 6.29 | 11.1 | 15 | 59.5
COc1ccc([C@@]2(C34CC5CC(CC(C5)C3)C4)N=C(N)N(C)C2=O)cc1C | – | – | – | 73.6 | 13.1 | – | –
CN1C(=O)C(c2ccccc2)(c2cccc(Cl)c2)N=C1N (configuration not stated) | 2.5 | 6.97 | – | 0.42 | 69.2 | – | –
COc1ccc(C2(c3cccc(-c4cccnc4)c3)N=C(N)N(C)C2=O)cc1OC1CCCC1 (configuration not stated) | – | – | – | 0.3 | 8.3 | – | –
COc1ccc(C2(c3cccc(-c4cccnc4)c3)N=C(N)N(C)C2=O)cc1Cl (configuration not stated) | – | – | – | 0.56 | 6.28 | – | –
COc1ccc(C2(c3cccc(-c4cccnc4)c3)N=C(N)N(C)C2=O)cc1C#N (configuration not stated) | 0.15 | 4.5 | – | 0.55 | 7.3 | – | –
CN1C(=O)[C@@](c2ccc(OC(F)(F)F)cc2)(c2ccc(F)c(-c3cncnc3)c2)N=C1N | – | – | – | 7.54 | 2.33 | – | –
COc1ccc(C2(c3cccc(-c4cccnc4F)c3)N=C(N)N(C)C2=O)cc1C (configuration not stated) | – | 0.11 | – | – | – | – | –
